Measured values: ChEMBL document CHEMBL4251595, “Green approach for the synthesis of thiophenyl pyrazoles and isoxazoles by adopting 1,3-dipolar cycloaddition methodology and their antimicrobial activity” (2018)
≈ marks a conversion by molar mass, not a printed value. Calls of active or inactive are those of the source. The calls are words filed in the database; no cut-off is given here.

Assays:
Assay type in all cases: functional
Pseudomonas aeruginosa [1] = assay: Antimicrobial activity against Pseudomonas aeruginosa after 24 hrs by broth dilution test
Aspergillus niger [2] = assay: Antifungal activity against Aspergillus niger assessed as zone of inhibition at 100 ug/well after 48 hrs by agar well diffusion method; settings: read-out: DIZ
Bacillus subtilis [3] = assay: Antimicrobial activity against Bacillus subtilis after 24 hrs by broth dilution test
Staphylococcus aureus [4] = assay: Antimicrobial activity against Staphylococcus aureus assessed as zone of inhibition at 100 ug/well after 24 hrs by agar well diffusion method; settings: read-out: DIZ
Aspergillus niger [5] = assay: Fungicidal activity against Aspergillus niger incubated for 48 hrs followed by replating on PDA and incubated for 48 hrs by broth dilution test
Penicillium chrysogenum [6] = assay: Antifungal activity against Penicillium chrysogenum after 48 hrs by broth dilution test
Pseudomonas aeruginosa [7] = assay: Antimicrobial activity against Pseudomonas aeruginosa assessed as zone of inhibition at 75 ug/well after 24 hrs by agar well diffusion method; settings: read-out: DIZ
Bacillus subtilis [8] = assay: Antimicrobial activity against Bacillus subtilis assessed as zone of inhibition at 50 ug/well after 24 hrs by agar well diffusion method; settings: read-out: DIZ
Klebsiella pneumoniae [9] = assay: Antimicrobial activity against Klebsiella pneumoniae assessed as zone of inhibition at 75 ug/well after 24 hrs by agar well diffusion method; settings: read-out: DIZ
Penicillium chrysogenum [10] = assay: Antifungal activity against Penicillium chrysogenum assessed as zone of inhibition at 100 ug/well after 48 hrs by agar well diffusion method; settings: read-out: DIZ
Staphylococcus aureus [11] = assay: Bactericidal activity against Staphylococcus aureus incubated for 24 hrs followed by replating on sterile nutrient broth and incubated for 24 hrs by broth dilution test
Klebsiella pneumoniae [12] = assay: Bactericidal activity against Klebsiella pneumoniae incubated for 24 hrs followed by replating on sterile nutrient broth and incubated for 24 hrs by broth dilution test
Aspergillus niger [13] = assay: Antifungal activity against Aspergillus niger after 48 hrs by broth dilution test
Staphylococcus aureus [14] = assay: Antimicrobial activity against Staphylococcus aureus after 24 hrs by broth dilution test
Aspergillus niger [15] = assay: Antifungal activity against Aspergillus niger assessed as zone of inhibition at 75 ug/well after 48 hrs by agar well diffusion method; settings: read-out: DIZ
Penicillium chrysogenum [16] = assay: Fungicidal activity against Penicillium chrysogenum incubated for 48 hrs followed by replating on PDA and incubated for 48 hrs by broth dilution test
Aspergillus niger [17] = assay: Antifungal activity against Aspergillus niger assessed as zone of inhibition at 50 ug/well after 48 hrs by agar well diffusion method; settings: for zone of inhibition at 50 µg/disc: read-out: DIZ
Staphylococcus aureus [18] = assay: Antimicrobial activity against Staphylococcus aureus assessed as zone of inhibition at 75 ug/well after 24 hrs by agar well diffusion method; settings: read-out: DIZ
Staphylococcus aureus [19] = assay: Antimicrobial activity against Staphylococcus aureus assessed as zone of inhibition at 50 ug/well after 24 hrs by agar well diffusion method; settings: for zone of inhibition at 50 µg/disc: read-out: DIZ
Bacillus subtilis [20] = assay: Antimicrobial activity against Bacillus subtilis assessed as zone of inhibition at 100 ug/well after 24 hrs by agar well diffusion method; settings: read-out: DIZ
Pseudomonas aeruginosa [21] = assay: Antimicrobial activity against Pseudomonas aeruginosa assessed as zone of inhibition at 100 ug/well after 24 hrs by agar well diffusion method; settings: read-out: DIZ
Penicillium chrysogenum [22] = assay: Antifungal activity against Penicillium chrysogenum assessed as zone of inhibition at 50 ug/well after 48 hrs by agar well diffusion method; settings: for zone of inhibition at 50 µg/disc: read-out: DIZ
Pseudomonas aeruginosa [23] = assay: Bactericidal activity against Pseudomonas aeruginosa incubated for 24 hrs followed by replating on sterile nutrient broth and incubated for 24 hrs by broth dilution test
Klebsiella pneumoniae [24] = assay: Antimicrobial activity against Klebsiella pneumoniae after 24 hrs by broth dilution test
Klebsiella pneumoniae [25] = assay: Antimicrobial activity against Klebsiella pneumoniae assessed as zone of inhibition at 50 ug/well after 24 hrs by agar well diffusion method; settings: read-out: DIZ
Bacillus subtilis [26] = assay: Antimicrobial activity against Bacillus subtilis assessed as zone of inhibition at 75 ug/well after 24 hrs by agar well diffusion method; settings: read-out: DIZ
Bacillus subtilis [27] = assay: Bactericidal activity against Bacillus subtilis incubated for 24 hrs followed by replating on sterile nutrient broth and incubated for 24 hrs by broth dilution test
Penicillium chrysogenum [28] = assay: Antifungal activity against Penicillium chrysogenum assessed as zone of inhibition at 75 ug/well after 48 hrs by agar well diffusion method; settings: for zone of inhibition at 75 µg/disc: read-out: DIZ
Klebsiella pneumoniae [29] = assay: Antimicrobial activity against Klebsiella pneumoniae assessed as zone of inhibition at 100 ug/well after 24 hrs by agar well diffusion method; settings: read-out: DIZ
Pseudomonas aeruginosa [30] = assay: Antimicrobial activity against Pseudomonas aeruginosa assessed as zone of inhibition at 50 ug/well after 24 hrs by agar well diffusion method; settings: for zone of inhibition at 50 µg/disc: read-out: DIZ

| Structure (SMILES) | MIC (Pseudomonas aeruginosa [1]) | zone of inhibition at 100 µg/disc (Aspergillus niger [2]) | MIC (Bacillus subtilis [3]) | zone of inhibition at 100 µg/disc (Staphylococcus aureus [4]) | MIC (Penicillium chrysogenum [6]) | zone of inhibition at 75 µg/disc (Pseudomonas aeruginosa [7]) | zone of inhibition at 50 µg/disc (Bacillus subtilis [8]) | zone of inhibition at 75 µg/disc (Klebsiella pneumoniae [9]) | zone of inhibition at 100 µg/disc (Penicillium chrysogenum [10]) | MIC (Aspergillus niger [13]) | MIC (Staphylococcus aureus [14]) | zone of inhibition at 75 µg/disc (Aspergillus niger [15]) | zone of inhibition at 50 µg/disc (Aspergillus niger [17]) | zone of inhibition at 75 µg/disc (Staphylococcus aureus [18]) | zone of inhibition at 50 µg/disc (Staphylococcus aureus [19]) | zone of inhibition at 100 µg/disc (Bacillus subtilis [20]) | zone of inhibition at 100 µg/disc (Pseudomonas aeruginosa [21]) | zone of inhibition at 50 µg/disc (Klebsiella pneumoniae [25]) | zone of inhibition at 75 µg/disc (Bacillus subtilis [26]) | zone of inhibition at 100 µg/disc (Klebsiella pneumoniae [29]) | further results |
| --- | --- | --- | --- | --- | --- | --- | --- | --- | --- | --- | --- | --- | --- | --- | --- | --- | --- | --- | --- | --- | --- |
| O=C(NS(=O)(=O)/C=C/c1ccc([N+](=O)[O-])cc1)c1cccs1 | 25 µg/mL (≈ 73.9 µM) | 28 mm | 12.5 µg/mL (≈ 36.9 µM) | 25 mm | 100 µg/mL (≈ 296 µM) | 19 mm | 30 mm | 30 mm | 27 mm | 25 µg/mL (≈ 73.9 µM) | 100 µg/mL (≈ 296 µM) | 25 mm | 23 mm | 22 mm | 19 mm | 36 mm | 21 mm | 26 mm | 32 mm | 31 mm | MFC (Aspergillus niger [5]): 100 µg/mL (≈ 296 µM); MBC (Staphylococcus aureus [11]): > 200 µg/mL; MBC (Klebsiella pneumoniae [12]): 200 µg/mL (≈ 591 µM); MFC (Penicillium chrysogenum [16]): > 200 µg/mL; zone of inhibition at 50 µg/disc (Penicillium chrysogenum [22]): 22 mm; MBC (Pseudomonas aeruginosa [23]): 100 µg/mL (≈ 296 µM); MIC (Klebsiella pneumoniae [24]): 50 µg/mL (≈ 148 µM); MBC (Bacillus subtilis [27]): 50 µg/mL (≈ 148 µM); zone of inhibition at 75 µg/disc (Penicillium chrysogenum [28]): 24 mm; zone of inhibition at 50 µg/disc (Pseudomonas aeruginosa [30]): 16 mm |
| O=C(NS(=O)(=O)/C=C/c1ccc([N+](=O)[O-])cc1)c1ccc(Cl)s1 | 25 µg/mL (≈ 67.1 µM) | 31 mm | 6.25 µg/mL (≈ 16.8 µM) | 26 mm | 100 µg/mL (≈ 268 µM) | 21 mm | 31 mm | 29 mm | 28 mm | 25 µg/mL (≈ 67.1 µM) | 50 µg/mL (≈ 134 µM) | 29 mm | 27 mm | 24 mm | 21 mm | 38 mm | 24 mm | 27 mm | 34 mm | 33 mm | MFC (Aspergillus niger [5]): 100 µg/mL (≈ 268 µM); MBC (Staphylococcus aureus [11]): 200 µg/mL (≈ 536 µM); MBC (Klebsiella pneumoniae [12]): 100 µg/mL (≈ 268 µM); MFC (Penicillium chrysogenum [16]): > 200 µg/mL; zone of inhibition at 50 µg/disc (Penicillium chrysogenum [22]): 24 mm; MBC (Pseudomonas aeruginosa [23]): 100 µg/mL (≈ 268 µM); MIC (Klebsiella pneumoniae [24]): 25 µg/mL (≈ 67.1 µM); MBC (Bacillus subtilis [27]): 12.5 µg/mL (≈ 33.5 µM); zone of inhibition at 75 µg/disc (Penicillium chrysogenum [28]): 26 mm; zone of inhibition at 50 µg/disc (Pseudomonas aeruginosa [30]): 19 mm |
| CC(=O)N1CCN(c2ccc(OCC3COC(Cn4ccnc4)(c4ccc(Cl)cc4Cl)O3)cc2)CC1 (configuration not stated) [KETOCONAZOLE] |  | 36 mm |  |  | 12.5 µg/mL (≈ 23.5 µM) |  |  |  | 38 mm | 6.25 µg/mL (≈ 11.8 µM) |  | 33 mm | 31 mm |  |  |  |  |  |  |  | zone of inhibition at 50 µg/disc (Penicillium chrysogenum [22]): 35 mm; zone of inhibition at 75 µg/disc (Penicillium chrysogenum [28]): 36 mm |
| O=C(N[C@H](CO)[C@H](O)c1ccc([N+](=O)[O-])cc1)C(Cl)Cl [CHLORAMPHENICOL] | 6.25 µg/mL (≈ 19.3 µM) |  | 6.25 µg/mL (≈ 19.3 µM) | 35 mm |  | 27 mm | 32 mm | 40 mm |  |  | 12.5 µg/mL (≈ 38.7 µM) |  |  | 33 mm | 30 mm | 38 mm | 30 mm | 38 mm | 34 mm | 42 mm | MIC (Klebsiella pneumoniae [24]): 6.25 µg/mL (≈ 19.3 µM); zone of inhibition at 50 µg/disc (Pseudomonas aeruginosa [30]): 25 mm |
| O=C(NS(=O)(=O)c1c(-c2ccccc2)nn(-c2ccccc2)c1-c1ccc([N+](=O)[O-])cc1)c1cccs1 | 25 µg/mL (≈ 47.1 µM) | 31 mm | 6.25 µg/mL (≈ 11.8 µM) | 27 mm | 100 µg/mL (≈ 188 µM) | 21 mm | 33 mm | 32 mm | 27 mm | 25 µg/mL (≈ 47.1 µM) | 50 µg/mL (≈ 94.2 µM) | 28 mm | 25 mm | 26 mm | 23 mm | 40 mm | 24 mm | 29 mm | 36 mm | 34 mm | MFC (Aspergillus niger [5]): 100 µg/mL (≈ 188 µM); MBC (Staphylococcus aureus [11]): 200 µg/mL (≈ 377 µM); MBC (Klebsiella pneumoniae [12]): 100 µg/mL (≈ 188 µM); MFC (Penicillium chrysogenum [16]): > 200 µg/mL; zone of inhibition at 50 µg/disc (Penicillium chrysogenum [22]): 22 mm; MBC (Pseudomonas aeruginosa [23]): 100 µg/mL (≈ 188 µM); MIC (Klebsiella pneumoniae [24]): 25 µg/mL (≈ 47.1 µM); MBC (Bacillus subtilis [27]): 12.5 µg/mL (≈ 23.6 µM); zone of inhibition at 75 µg/disc (Penicillium chrysogenum [28]): 24 mm; zone of inhibition at 50 µg/disc (Pseudomonas aeruginosa [30]): 20 mm |
| O=C(NS(=O)(=O)c1c(-c2ccccc2)noc1-c1ccc([N+](=O)[O-])cc1)c1ccc(Cl)s1 | 12.5 µg/mL (≈ 25.5 µM) | 40 mm | 6.25 µg/mL (≈ 12.8 µM) | 32 mm | 50 µg/mL (≈ 102 µM) | 25 mm | 37 mm | 35 mm | 33 mm | 6.25 µg/mL (≈ 12.8 µM) | 50 µg/mL (≈ 102 µM) | 37 mm | 35 mm | 30 mm | 27 mm | 44 mm | 28 mm | 32 mm | 39 mm | 38 mm | MFC (Aspergillus niger [5]): 12.5 µg/mL (≈ 25.5 µM); MBC (Staphylococcus aureus [11]): 200 µg/mL (≈ 408 µM); MBC (Klebsiella pneumoniae [12]): 100 µg/mL (≈ 204 µM); MFC (Penicillium chrysogenum [16]): 200 µg/mL (≈ 408 µM); zone of inhibition at 50 µg/disc (Penicillium chrysogenum [22]): 27 mm; MBC (Pseudomonas aeruginosa [23]): 50 µg/mL (≈ 102 µM); MIC (Klebsiella pneumoniae [24]): 25 µg/mL (≈ 51 µM); MBC (Bacillus subtilis [27]): 12.5 µg/mL (≈ 25.5 µM); zone of inhibition at 75 µg/disc (Penicillium chrysogenum [28]): 29 mm; zone of inhibition at 50 µg/disc (Pseudomonas aeruginosa [30]): 23 mm |
| Cc1ccc(/C=C/S(=O)(=O)NC(=O)c2cccs2)cc1 |  | 12 mm |  | 12 mm |  | 7 mm | 13 mm | 13 mm | 10 mm |  |  | 8 mm |  | 11 mm |  | 18 mm | 9 mm | 12 mm | 15 mm | 16 mm | diameter of the inhibition zone (DIZ) (Aspergillus niger [17]): inactive; diameter of the inhibition zone (DIZ) (Staphylococcus aureus [19]): inactive; diameter of the inhibition zone (DIZ) (Penicillium chrysogenum [22]): inactive; diameter of the inhibition zone (DIZ) (Penicillium chrysogenum [28]): inactive; diameter of the inhibition zone (DIZ) (Pseudomonas aeruginosa [30]): inactive |
